This experiment is described as follows: Antagonist activity assessed by differentiation of 1,25-D3-induced HL60 cells.
Usually IC50 stands for the concentration that inhibits the measured activity by half. Low readings indicate greater potency in that assay, high ones weaker potency in that assay. Consider `C=C1/C(=C\C=C2/CCC[C@@]3(C)C2CC[C@@H]3[C@H](C)C[C@H]2C[C@](C)(O)C(=O)N2Cc2ccc(OC)cc2)C[C@@H](O)C[C@@H]1O` (some centres not stated), for which 660 nM corresponded to half-maximal inhibition (IC50). As for `C=C1/C(=C\C=C2/CCC[C@@]3(C)C2CC[C@@H]3[C@H](C)C[C@H]2C[C@](C)(O)C(=O)N2C(C)C)C[C@@H](O)C[C@@H]1O` (some centres not stated), the figure is more than 1000 nM. For `C=C1/C(=C\C=C2/CCC[C@]3(C)[C@@H]([C@H](C)C[C@H]4C[C@@](C)(O)C(=O)N4CCc4ccccc4)CC[C@@H]23)C[C@@H](O)C[C@@H]1O` [(3R,5S)-5-((R)-2-((1R,3aS,7aR,E)-4-((Z)-2-((3S,5R)-3,5-dihydroxy-2-methylenecyclohexylidene)ethylidene)-7a-methyloctahydro-1H-inden-1-yl)propyl)-3-hydroxy-3-methyl-1-phenethylpyrrolidin-2-one], the IC50 was more than 2000 nM. In turn, `C=C1/C(=C\C=C2/CCC[C@]3(C)[C@@H]([C@H](C)C[C@H]4C[C@](C)(O)C(=O)N4Cc4ccccc4)CC[C@@H]23)C[C@@H](O)C[C@@H]1O` [(3S,5S)-1-benzyl-5-((R)-2-((1R,3aS,7aR)-4-(2-((3S,5R)-3,5-dihydroxy-2-methylenecyclohexylidene)ethylidene)-7a-methyl-octahydro-1H-inden-1-yl)propyl)-3-hydroxy-3-methylpyrrolidin-2-one] showed an IC50 of 700 nM. For `C=C1/C(=C\C=C2/CCC[C@]3(C)[C@@H]([C@H](C)C[C@H]4C[C@](C)(O)C(=O)N4CCCc4ccccc4)CC[C@@H]23)C[C@@H](O)C[C@@H]1O` [(3S,5S)-5-((R)-2-((1R,3aS,7aR)-4-(2-((3S,5R)-3,5-dihydroxy-2-methylenecyclohexylidene)ethylidene)-7a-methyl-octahydro-1H-inden-1-yl)propyl)-3-hydroxy-3-methyl-1-(3-phenylpropyl)pyrrolidin-2-one], the IC50 amounted to 2200 nM. As for `C=C1/C(=C\C=C2/CCC[C@]3(C)[C@@H]([C@H](C)C[C@H]4C[C@](C)(O)C(=O)N4CCCCc4ccccc4)CC[C@@H]23)C[C@@H](O)C[C@@H]1O` [(3S,5S)-5-((R)-2-((1R,3aS,7aR)-4-(2-((3S,5R)-3,5-dihydroxy-2-methylenecyclohexylidene)ethylidene)-7a-methyl-octahydro-1H-inden-1-yl)propyl)-3-hydroxy-3-methyl-1-(4-phenylbutyl)pyrrolidin-2-one], the figure is 390 nM; as for `C=C1/C(=C\C=C2/CCC[C@]3(C)[C@@H]([C@H](C)C[C@H]4C[C@](C)(O)C(=O)N4CCc4ccccc4)CC[C@@H]23)C[C@@H](O)C[C@@H]1O` [(3S,5S)-5-((R)-2-((1R,3aS,7aR)-4-(2-((3S,5R)-3,5-dihydroxy-2-methylenecyclohexylidene)ethylidene)-7a-methyl-octahydro-1H-inden-1-yl)propyl)-3-hydroxy-3-methyl-1-phenethylpyrrolidin-2-one], 207 nM.

Source of the values: BindingDB's records for doi:10.1021/jm050738x (University of Tokyo, 2006).
